The results in this text go back to US20250017964A1, “ENGINEERING OR INDUCING PDGF AND/OR PDGFR SIGNALING TO ENHANCE NK CELL THERAPY” (City of Hope, priority 2021, published 2025).

Assay [1] relates to NOD/SCID/IL-2rg (NSG) mice. Briefly: PDGF-D injection after NK cell adoptive transfer into NSG mice, annexin V and Ki-67. The note with it: in vivo, PDGF-D 1 μg per mouse i.v. daily for 3 days. The protocol: FIGS. 6A-6M. IL-15 maintains NK cell survival through a PDGF-D-PDGFRβ autocrine pathway. (A) 1×10^5 primary NK cells were cultured in vitro for 7 days in the presence of IL-15 (10 ng/ml) and PDGF-D (50 ng/ml). Cells were counted on days 3, 5, and 7 (n=3). (B) 1×10^5 primary NK cells were cultured in vitro for 7 days in the presence of IL-15 (10 ng/ml) and anti-PDGF-D (10 βg/ml) or control IgG (10 μg/ml). Cells were counted on days 3, 5, and 7 (n=3). […] The cells were counted by trypan exclusion assay on days 3, 5, and 7 (n=3). (D) 1×10^5 primary NK cells were cultured in vitro for 7 days in the presence of IL-15 (10 ng/ml) and PDGF-D (50 ng/ml) as well as anti-PDGFRβ (10 μg/ml). Cells were counted by trypan exclusion assay on days 3, 5, and 7 (n=3). (E) 1×10^5 primary NK cells were cultured in vitro for 7 days in the presence of IL-15 (10 ng/ml) and PDGF-D (50 ng/ml) as well as anti-NKp44 (10 μg/ml). Cells were counted by trypan exclusion assay on days 3, 5, and 7 (n=3). (F-I) Primary NK cells were cultured in the presence of IL-15 (10 ng/ml) and PDGF-D (50 ng/ml) as well as anti-NKp44 (10 μg/ml) or anti-PDGFRβ (10 Kg/ml) for 48 h. The cultured NK cells were then harvested for immunoblotting to determine protein levels of BCL-2, BCL-XL, and MCL-1 (n=3). […] Cell apoptosis and proliferation were analyzed by annexin V staining (J) and Ki-67 staining (K), respectively. […]

In assay [2] the test system is NK cells. Nature of the assay: NK cell expansion in vitro, cell counts by trypan blue exclusion. It counts as cell-based, human. The note with it: 7 days.
Assay [3] relates to BCL-2, BCL-XL, and MCL-1. Briefly: Immunoblot of BCL-2, BCL-XL and MCL-1 in NK cells. It counts as cell-based, human. The settings on record: 48 h. Background: In western blotting, separated proteins are transferred to a membrane and probed.

Turning to “PDGF-D: recombinant human PDGF-DD (1159-SB-025), R&D Systems”, in assay [1], the “NK cell proliferation (Ki67)” value is recorded as “did not affect NK cell proliferation”. In addition, in assay [1] (peripheral blood), the “apoptosis of PDGFRβ^+ NK cells (annexin V)” value is “inhibited apoptosis”. In addition, in assay [2] (IL-2 50 U/ml and PDGF-D 50 ng/ml), the “expansion of primary NK cells transduced with PDGFRβ” value is listed as “enhanced the expansion”. Further, the NK cell expansion result in assay [2] (primary NK cells, IL-15 10 ng/ml and PDGF-D 50 ng/ml) is on record as “promoted cell expansion”. The “expression levels of BCL-2, BCL-XL, and MCL-1” value in assay [3] (IL-15 10 ng/ml and PDGF-D 50 ng/ml) is on record as “increased the expression levels”. Moreover, the “receptor dependence of the BCL-2, BCL-XL, and MCL-1 increase” value in assay [3] (with anti-NKp44 or anti-PDGFRβ) was “NKp44-independent but PDGFRβ-dependent”.
